Measurements from ChEMBL document CHEMBL4052706, “Isolation, structure elucidation, and synthesis of antiplasmodial quinolones from Crinum firmifolium” (Bioorg Med Chem, 2017).
pIC50: −log10 of the molar value.

Assays:
Plasmodium falciparum [1] = assay: Antiplasmodial activity against chloroquine/mefloquine-resistant Plasmodium falciparum Dd2 incubated for 72 hrs by SYBR green 1 dye based fluorescence assay; type: functional; conditions: Dd2, 72 h
A2780 = assay: Antiproliferative activity against human A2780 cells after 2 days by Alamar blue assay; type: cell-based; conditions: A2780, 48 h
[2] = Selectivity ratio of IC50 for human A2780 cells to IC50 for chloroquine/mefloquine-resistant Plasmodium falciparum Dd2
Plasmodium falciparum [3] = assay: Antiplasmodial activity against chloroquine-sensitive Plasmodium falciparum 3D7 incubated for 72 hrs by SYBR green 1 dye based fluorescence assay; type: functional; conditions: 3D7, 72 h

SMILES	pIC50 (Plasmodium falciparum [1])	pIC50 (A2780)	Ratio IC50 [2]	pIC50 (Plasmodium falciparum [3])
CCCCCCCCc1cc(=O)c2ccccc2[nH]1	5.44	4.92	3.4	–
CCCC(C)CCCc1cc(=O)c2ccccc2[nH]1 (centres undefined)	6.48	4.54	89	6.41
COc1cc2c(cc1O)c(=O)n1ccc3cccc2c31	< 4.42	< 4.12	–	–
CC(C)CCCCCc1cc(=O)c2ccccc2[nH]1	6.23	4.47	57.7	6.30
CCC(C)CCCCc1cc(=O)c2ccccc2[nH]1 (centres undefined)	6.12	5.06	11.6	6.04
CNc1ccccc1-c1cc2c(cc1CO)OCO2	< 4.41	< 4.11	–	–
CCCCCCCc1cc(=O)c2ccccc2[nH]1	5.88	4.46	–	–
C[C@@H]1CC[C@H]2[C@@H](C)C(=O)O[C@@H]3O[C@@]4(C)CC[C@@H]1[C@]32OO4 [ARTEMISININ]	8.05	–	–	8.23
CC(=O)O[C@H]1C(=O)[C@@]2(C)[C@H]([C@H](OC(=O)c3ccccc3)[C@]3(O)C[C@H](OC(=O)[C@H](O)[C@@H](NC(=O)c4ccccc4)c4ccccc4)C(C)=C1C3(C)C)[C@]1(OC(C)=O)CO[C@@H]1C[C@@H]2O [PACLITAXEL]	–	7.86	–	–
